Values of other authors, collected in paper PMC10535842, “Novel Thiazole-Based SIRT2 Inhibitors Discovered via Molecular Modelling Studies and Enzymatic Assays” (Pharmaceuticals, 2023).
pIC50: −log10 of the molar value. Several values for one entry are separate records, joined by “and”; a condition that tells them apart may be missing. Equal values may be shown once.

System: SIRT2
Details: substrate RHKK(Ac)-AMC; read-out: SIRT2 IC50 (series B, compounds 27-111); cited from earlier work

SMILES	pIC50
O=c1c2c3c(sc2ncn1Cc1cccc2cccnc12)CC(NC1CCCc2ccccc21)CC3 (stereo not shown) [Compound 107]	5.26
O=c1c2c3c(sc2ncn1Cc1ccc2ccccc2c1)CC(NCc1ccccc1)CC3 (stereo not shown) [Compound 41]	5.26
COc1ccc2ccccc2c1Cn1cnc2sc3c(c2c1=O)CCC(NCC1CCCO1)C3 (stereo not shown) [Compound 90]	5.72
Cc1nn(C)c(C)c1CNC1CCc2c(sc3ncn(Cc4ccc5ccccc5c4)c(=O)c23)C1 (stereo not shown) [Compound 33]	5.13
COc1ccc2ccccc2c1Cn1cnc2sc3c(c2c1=O)CCC(NCc1ccccc1)C3 (stereo not shown) [Compound 40]	4.68
COc1ccccc1CNC1CCc2c(sc3ncn(Cc4ccc5ccccc5c4)c(=O)c23)C1 (stereo not shown) [Compound 51]	5.37
O=c1c2c3c(sc2ncn1Cc1ccc2ccccc2c1)CC(NCc1ccncc1)CC3 (stereo not shown) [Compound 68]	5.50
O=c1c2c3c(sc2ncn1Cc1cccc2cccnc12)CC(NCc1cccc(F)c1)CC3 (stereo not shown) [Compound 45]	5.76
O=c1c2c3c(sc2ncn1Cc1cccc2ccccc12)CC(NCc1ccco1)CC3 (stereo not shown) [Compound 28]	5.12
COc1ccc2ccccc2c1Cn1cnc2sc3c(c2c1=O)CCC(NCc1cccs1)C3 (stereo not shown) [Compound 38]	5.22
O=c1c2c3c(sc2ncn1Cc1cccc2cccnc12)CC(NCc1cccs1)CC3 (stereo not shown) [Compound 39]	5.59
COc1ccc2ccccc2c1Cn1cnc2sc(CCNCc3cccnc3)c(C)c2c1=O [Compound 109]	5.67
Cc1nn(C)c(C)c1CNC1CCc2c(sc3ncn(Cc4cccc5ccccc45)c(=O)c23)C1 (stereo not shown) [Compound 32]	5.38
O=c1c2c3c(sc2ncn1Cc1cccc2ccccc12)CC(NCc1cncnc1)CC3 (stereo not shown) [Compound 84]	5.19
O=c1c2c3c(sc2ncn1Cc1cccc2cccnc12)CC(NCc1ccncc1)CC3 (stereo not shown) [Compound 69]	5.43
O=c1c2c3c(sc2ncn1Cc1cccc2cccnc12)CC(NCC1CCCCC1)CC3 (stereo not shown) [Compound 88]	5.61
O=c1c2c3c(sc2ncn1Cc1ccc2ccccc2c1)CC(NCCc1cccnc1)CC3 (stereo not shown) [Compound 80]	5.06
Cc1noc(C)c1CNC1CCc2c(sc3ncn(Cc4cccc5cccnc45)c(=O)c23)C1 (stereo not shown) [Compound 37]	5.16
COc1ccc2ccccc2c1Cn1cnc2sc3c(c2c1=O)CCC(NC1CCOCC1)C3 (stereo not shown) [Compound 100]	5.95
COc1ccccc1CNC1CCc2c(sc3ncn(Cc4c(OC)ccc5ccccc45)c(=O)c23)C1 (stereo not shown) [Compound 50]	5.65
COc1ccccc1CNC1CCc2c(sc3ncn(Cc4cccc5cccnc45)c(=O)c23)C1 (stereo not shown) [Compound 52]	5.25

SMILES	pIC50
Cc1ccc(NC2CCc3c(sc4ncn(Cc5cccc6cccnc56)c(=O)c34)C2)cc1 (stereo not shown) [Compound 61]	5.37
O=c1c2c3c(sc2ncn1Cc1ccc2ccccc2c1)CC(NCC1CCCCC1)CC3 (stereo not shown) [Compound 87]	5.26
COc1ccc2ccccc2c1Cn1cnc2sc3c(c2c1=O)CCC(NCc1ccncc1)C3 (stereo not shown) [Compound 66]	5.92
O=c1c2c3c(sc2ncn1Cc1cccc(-c2ccccc2)c1)CC(NCCN1CCOCC1)CC3 (stereo not shown) [Compound 103]	5.50
O=c1c2c3c(sc2ncn1Cc1cccc2cccnc12)CC(NCc1ccccc1Cl)CC3 (stereo not shown) [Compound 48]	5.42
COc1ccc(CNC2CCc3c(sc4ncn(Cc5cccc6ccccc56)c(=O)c34)C2)cc1 (stereo not shown) [Compound 57]	5.49
COc1ccc2ccccc2c1Cn1cnc2sc3c(c2c1=O)CCC(NCc1ccccn1)C3 (stereo not shown) [Compound 70]	5.51
O=c1c2c3c(sc2ncn1Cc1ccc2ccccc2c1)CC(NCC1CCCO1)CC3 (stereo not shown) [Compound 92]	4.88
COc1ccc2ccccc2c1Cn1cnc2sc3c(c2c1=O)CCC(NCCc1ccncc1)C3 (stereo not shown) [Compound 81]	5.56
O=c1c2c3c(sc2ncn1Cc1cccc2ccccc12)CC(NCCc1cccnc1)CC3 (stereo not shown) [Compound 79]	5.02
O=c1c2c3c(sc2ncn1Cc1cccc2cccnc12)CC(Nc1ccc(F)cc1)CC3 (stereo not shown) [Compound 62]	> 6.00 and 6.01
COc1cccc(CNC2CCc3c(sc4ncn(Cc5ccccc5OC)c(=O)c34)C2)c1 (stereo not shown) [Compound 55]	4.87
O=c1c2c3c(sc2ncn1Cc1ccc2ccccc2c1)CC(NCc1ccco1)CC3 (stereo not shown) [Compound 29]	4.93
O=c1c2c3c(sc2ncn1Cc1cccc2ccccc12)CC(NCc1cccnc1)CC3 (stereo not shown) [Compound 64]	5.52
COc1ccc2ccccc2c1Cn1cnc2sc(CCNCc3ccncc3)c(C)c2c1=O [Compound 110]	5.53
COc1ccc(CNC2CCc3c(sc4ncn(Cc5ccc6ccccc6c5)c(=O)c34)C2)cc1 (stereo not shown) [Compound 58]	5.42
COc1ccc2ccccc2c1Cn1cnc2sc3c(c2c1=O)CCC(NCc1cccnc1)C3 (stereo not shown) [Compound 63]	5.84
COc1ccc(NC2CCc3c(sc4ncn(Cc5cccc6cccnc56)c(=O)c34)C2)cc1 (stereo not shown) [Compound 60]	5.61
O=c1c2c3c(sc2ncn1Cc1ccc2ccccc2c1)CC(NCc1cncnc1)CC3 (stereo not shown) [Compound 85]	5.28
O=c1c2c3c(sc2ncn1Cc1cccc(-c2ccccc2)c1)CC(NC1CCOCC1)CC3 (stereo not shown) [Compound 102]	5.76
COc1ccc(Cn2cnc3sc4c(c3c2=O)CCC(NC2CCOCC2)C4)c2ccccc12 (stereo not shown) [Compound 101]	5.30

SMILES	pIC50
COc1ccc(CNC2CCc3c(sc4ncn(Cc5cccc6cccnc56)c(=O)c34)C2)cn1 (stereo not shown) [Compound 77]	5.58
O=c1c2c3c(sc2ncn1Cc1ccc2ccccc2c1)CC(NCCc1ccncc1)CC3 (stereo not shown) [Compound 83]	5.02
COc1ccc2ccccc2c1Cn1cnc2sc3c(c2c1=O)CCC(NCC1CCCCC1)C3 (stereo not shown) [Compound 86]	5.78
COc1ccc2ccccc2c1Cn1cnc2sc3c(c2c1=O)CCC(NCc1c(C)noc1C)C3 (stereo not shown) [Compound 34]	5.40
O=c1c2c3c(sc2ncn1Cc1cccc2ccccc12)CC(NCc1ccncc1)CC3 (stereo not shown) [Compound 67]	5.45
O=c1c2c3c(sc2ncn1Cc1cccc(-c2ccccc2)c1)CC(NCC1CCOC1)CC3 (stereo not shown) [Compound 94]	5.59
COc1ccc(CNC2CCc3c(sc4ncn(Cc5ccc6ccccc6c5)c(=O)c34)C2)cn1 (stereo not shown) [Compound 76]	4.99
O=c1c2c3c(sc2ncn1Cc1cccc2ccccc12)CC(NCC1CCCO1)CC3 (stereo not shown) [Compound 91]	4.90
Cc1noc(C)c1CNC1CCc2c(sc3ncn(Cc4cccc5ccccc45)c(=O)c23)C1 (stereo not shown) [Compound 35]	5.73
O=c1c2c3c(sc2ncn1Cc1cccc2cccnc12)CC(NC1CCc2ccccc21)CC3 (stereo not shown) [Compound 105]	5.51
COc1ccc2ccccc2c1Cn1cnc2sc3c(c2c1=O)CCC(NCCc1cccnc1)C3 (stereo not shown) [Compound 78]	4.99
O=c1c2c3c(sc2ncn1Cc1cccc2cccnc12)CC(NCc1cccc(Cl)c1)CC3 (stereo not shown) [Compound 46]	5.55
O=c1c2c3c(sc2ncn1Cc1cccc2ccccc12)CC(NCc1ccccn1)CC3 (stereo not shown) [Compound 71]	5.11
O=c1c2c3c(sc2ncn1Cc1cccc2cccnc12)CC(NCc1ccccn1)CC3 (stereo not shown) [Compound 73]	5.58
O=c1c2c3c(sc2ncn1Cc1cccc(-c2ccccc2)c1)CC(NCCN1CCCC1)CC3 (stereo not shown) [Compound 104]	5.42
O=c1c2c3c(sc2ncn1Cc1cccc2cccnc12)CC(NCCC1CCCCC1)CC3 (stereo not shown) [Compound 95]	5.23
O=c1c2c3c(sc2ncn1Cc1cccc(-c2ccccc2)c1)CC(NCCC1CCCCC1)CC3 (stereo not shown) [Compound 96]	5.43
COc1ccc(Cn2cnc3sc4c(c3c2=O)CCC(NCc2c(C)noc2C)C4)c2ccccc12 (stereo not shown) [Compound 36]	> 6.00
COc1ccc2ccccc2c1Cn1cnc2sc3c(c2c1=O)CCC(NCc1ccco1)C3 (stereo not shown) [Compound 27]	5.28
COc1ccc2ccccc2c1Cn1cnc2sc3c(c2c1=O)CCC(NCC1CCOC1)C3 (stereo not shown) [Compound 93]	5.22
COc1ccccc1Cn1cnc2sc3c(c2c1=O)CCC(NCC1CCCCC1)C3 (stereo not shown) [Compound 89]	5.04

SMILES	pIC50
COc1ccc(CNC2CCc3c(sc4ncn(Cc5cccc6ccccc56)c(=O)c34)C2)cn1 (stereo not shown) [Compound 75]	5.12
COc1ccc(CNCCc2sc3ncn(Cc4c(OC)ccc5ccccc45)c(=O)c3c2C)cc1 [Compound 108]	5.47
O=c1c2c3c(sc2ncn1Cc1cccc2cccnc12)CC(NCc1ccc(Cl)cc1)CC3 (stereo not shown) [Compound 47]	5.90
COc1ccc2ccccc2c1Cn1cnc2sc3c(c2c1=O)CCC(NCc1cccc(F)c1)C3 (stereo not shown) [Compound 44]	5.39
COc1cccc(CNC2CCc3c(sc4ncn(Cc5c(OC)ccc6ccccc56)c(=O)c34)C2)c1 (stereo not shown) [Compound 54]	5.72
COc1ccccc1CNC1CCc2c(sc3ncn(Cc4ccccc4OC)c(=O)c23)C1 (stereo not shown) [Compound 53]	5.02
COc1ccc(CNC2CCc3c(sc4ncn(Cc5c(OC)ccc6ccccc56)c(=O)c34)C2)cn1 (stereo not shown) [Compound 74]	5.72
COc1ccc(CNC2CCc3c(sc4ncn(Cc5c(OC)ccc6ccccc56)c(=O)c34)C2)cc1 (stereo not shown) [Compound 56]	> 6.00 and 6.19
COc1ccccc1Cn1cnc2sc3c(c2c1=O)CCC(NC1CCc2ccccc21)C3 (stereo not shown) [Compound 106]	4.79
COc1ccccc1Cn1cnc2sc3c(c2c1=O)CCC(NCc1ccccc1)C3 (stereo not shown) [Compound 43]	4.98
COc1ccc(CNC2CCc3c(sc4ncn(Cc5cccc6cccnc56)c(=O)c34)C2)cc1 (stereo not shown) [Compound 59]	5.74
COc1ccc2ccccc2c1Cn1cnc2sc(CCNC3CCOCC3)c(C)c2c1=O [Compound 111]	5.09
COc1ccc2ccccc2c1Cn1cnc2sc3c(c2c1=O)CCC(NCc1c(C)nn(C)c1C)C3 (stereo not shown) [Compound 31]	5.29
O=c1c2c3c(sc2ncn1Cc1cccc2cccnc12)CC(NCc1cccnc1)CC3 (stereo not shown) [Compound 65]	5.53
O=c1c2c3c(sc2ncn1Cc1cccc(-c2ccccc2)c1)CC(NC1CCCC1)CC3 (stereo not shown) [Compound 99]	5.82
COc1ccc2ccccc2c1Cn1cnc2sc3c(c2c1=O)CCC(NC1CCCC1)C3 (stereo not shown) [Compound 97]	5.93
O=c1c2c3c(sc2ncn1Cc1ccc2ccccc2c1)CC(NCc1ccccn1)CC3 (stereo not shown) [Compound 72]	5.06
COc1ccc(Cn2cnc3sc4c(c3c2=O)CCC(NC2CCCC2)C4)c2ccccc12 (stereo not shown) [Compound 98]	6.14 and > 6.00
O=c1c2c3c(sc2ncn1Cc1cccc2ccccc12)CC(NCCc1ccncc1)CC3 (stereo not shown) [Compound 82]	5.24
